Laboratory results as given in patent US20250136617A1 (The Regents of the University of Colorado, A Body Corporate, priority 2022, published 2025).
Entries after “also recorded” stand apart in the source; their conditions may differ.

Columns and labels:
[1] = tested on: diabetic wounds in Db mice; experiment: Angiogenesis in diabetic wounds, CD31 immunohistochemistry at 7 days; format: in vivo
Description: The ability of compound UCUF-728 to improve diabetic wound healing in vivo was examined. Full-thickness excisional 8 mm wounds were created in Db mice and were immediately treated with 10 μM UCUF-728 or phosphate-buffered saline (PBS) control. Wound healing over the course of 22 days was monitored. Initial wound size was calculated immediately after wounding, and wound closure was assessed over time as the percentage of initial wound area. […] The effect of UCUF-728 treatment on angiogenesis was assessed using immunohistochemistry for endothelial marker CD31. Representative photos of immunoperoxidase staining for CD31 at 7 days in diabetic wounds treated with PBS or UCUF-728 are shown in FIG. 8A.
All animal experiments were approved by the Institutional Animal Care and Use Committee at the University of Colorado Denver—Anschutz Medical Campus, and experimental protocols followed the guidelines described in the NIH Guide for the Care and Use of Laboratory Animals. […] Mice pictures were taken every other day, wound size was analyzed by Image J. A full-thickness skin sample, centered on the wound, was harvested 3 and 7 days after surgery (n=5 per timepoint).
The effect of UCUF-965 treatment on angiogenesis was assessed using immunohistochemistry for the endothelial marker CD31. […] Quantification of the staining was obtained.

[2] = tested on: miR-15b; experiment: qPCR of miR-15b expression in human dermal fibroblasts; format: cell-based; details: 24 hours, 0.1, 1 and 10 uM
Description: An additional secondary screen was performed to further validate activity of UCUF-728 as a selective CXCR4 receptor modulator. Human diabetic and non-diabetic fibroblasts were cultured with increasing concentrations of the compound. The cells were incubated for 24 hours and then total cellular RNA was isolated to examine the ability of the compound to correct the abnormal expression of miR15b, and miR29a. It has been shown that human diabetic skin has increased miR-15b expression at baseline compared to non-diabetic skin (Xu et al. “The role of microRNA-15b in the impaired angiogenesis in diabetic wounds.” Wound Repair Regen 2014; 22(5):671-7).
Diabetic and non-diabetic fibroblasts were cultured with increasing concentrations of a UCUF-965 compound. The cells were incubated for 24 hours and then total cellular RNA was isolated to examine the ability of the compound to correct the abnormal expression of miR15b, and miR29a. Angiogenesis is regulated by hypoxia and the production of growth factors such as Hypoxia-inducible Factor 1-alpha (HIF-1a) and Vascular Endothelial Growth Factor (VEGF). […] MicroRNA-15b (miR-15b) has been described as a key negative modulator of angiogenesis. Under hypoxia, miR-15b is repressed, resulting in an increased level of VEGF. Over-expression of miR-15b also markedly attenuates hypoxia induced vessel tube formation and cell migration. […]

Structure (SMILES): COc1ccc(OC)c(NS(=O)(=O)c2ccc(-c3cnc(C4CC4)o3)cc2)c1 [Oxazole Entry 19, 4-(2-Cyclopropyloxazol-5-yl)-N-(2,5-dimethoxyphenyl)benzenesulfonamide]
- number of vessels (CD31 staining) vs PBS ([1]; listed as UCUF-728): significant increase in the number of vessels; also recorded: enhanced angiogenesis
- miR-15b expression ([2]; listed as UCUF-728): decreased expression of miR-15b; also recorded: potent suppression of miR-15b expression

Structure (SMILES): CCOc1ccccc1-c1nnc2n1N=C(c1ccc(N3CCCC3)cc1)CS2 [Thiadiazine Entry 23, 3-(2-ethoxyphenyl)-6-(4-(pyrrolidin-1-yl)phenyl)-7H-[1,2,4]triazolo[3,4-b][1,3,4]thiadiazine]
- number of vessels (CD31 staining) vs PBS ([1]; listed as UCUF-965): enhanced angiogenesis markers; also recorded: significantly increased the number of vessels
- miR-15b expression ([2]; listed as UCUF-965): decreased expression of miR-15b
